This note sets out measurements from EP4640686A1, “DEGRADER FOR DEGRADING BRD PROTEIN AND PHARMACEUTICAL COMPOSITION CONTAINING SAME” (Innocure Therapeutics, Inc., priority 2022, dated 2024).

Type in all cases: cell-based
For one experiment, the system named is MDA-MB-231. The experiment can be described thus: Cancer cell antiproliferative activity / cell viability in MDA-MB-231 cells (72 h treatment). To be noted: Homo sapiens, read-out: BRD4 (IC50). Here is the method:
(§1) The human breast cancer cell line [MDA-MB-231] was cultured in RPMI medium with the addition of 10% fetal bovine serum, penicillin [100U/ml], and streptomycin [[…]]. The synthesized compounds were prepared with a 10 mM or 50 mM raw material solution dissolved in DMSO [dimethyl sulfoxide], and were diluted sequentially and treated. [RPMI2650] and [SNU2972] were cultivated under specific conditions.
(§2) To observe cell growth inhibition, cells were dispensed in a concentration of 5,000 cells/well in a 96-well plate, and samples prepared at various concentrations were treated for 72 hours. The IC50 value (the concentration of the compound achieving 50% cytostaticism) is the average value of the results of three independent measurements.

In another experiment the target is T1, BRD4-NUT (Homo sapiens, UniProt O60885+Q86Y26).
T1 construct: endogenous in cells; host or cells: RPMI2650
The experiment can be described thus: BRD4-NUT protein degradation by western blotting in RPMI2650 cells (24 h treatment). The method, boiled down:
(§3)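 Cells seeded at 5 X 10^5 cells/well and exposed to serially diluted compound for 24 hours. Western blot bands were quantified by densitometry, normalized to β-actin or GAPDH and expressed as % of 0.1% DMSO vehicle. DC50 is the concentration giving 50% loss of protein.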
(In general: A western blot detects proteins with antibodies after separation by electrophoresis.)

For experiment [1], the target named is T2, BRD4 (Homo sapiens, UniProt O60885). Nature of the experiment: BRD4 protein degradation by western blotting in MDA-MB-231 cells (24 h treatment). Set-up: To evaluate the resolution of PROTAC for BRD4 expressed in cells; endogenous in cells; host or cells: MDA-MB-231.
The test system of a further experiment is SNU2972. Nature of the experiment: Cancer cell antiproliferative activity / cell viability in SNU2972 cells (72 h treatment). Particulars: read-out: BRD4 (IC50). Here is the method: as §1, §2
For another experiment, the system named is RPMI2650. Nature of the experiment: Cancer cell antiproliferative activity / cell viability in RPMI2650 cells (72 h treatment). To be noted: Homo sapiens. The method, boiled down:
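RPMI2650 human cells were grown under specific culture conditions and seeded at 5,000 cells/well in 96-well plates. Test compounds, dissolved in DMSO as 10 mM or 50 mM stock solutions and serially diluted, were applied at various concentrations for 72 hours. IC50, the concentration giving 50% cytostasis, was averaged over three independent measurements.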

Experiment [2] concerns the target T2, BRD4. The experiment can be described thus: BRD4 protein degradation by western blotting in RPMI2650 cells (24 h treatment). Also noted: To evaluate the resolution of PROTAC for BRD4 expressed in cells; endogenous in cells; host or cells: RPMI2650. The method, boiled down: as §3
Setting [3] is: read-out: BRD4-NUT (DC50), RPMI2650.
The mark [4] stands for this setting: RPMI-2650, RPMI2650, read-out: BRD4 (IC50).
The mark [5] stands for this setting: read-out: BR04 (DC50), RPMI2650.
Where [6] appears, read: RPM12650, read-out: BRD4-NUT (DC50).
Where [7] appears, read: RPMI-2650, RPM12650, read-out: Cell Viatility (IC50).
The mark [8] stands for this setting: RPM12650, read-out: BRD4 (DC50).

Like-named read-outs stand apart in the source and are kept apart here.

With `Cc1sc2c(c1C)C(c1ccc(Cl)cc1)=N[C@@H](CC(=O)N1CCC(CN3CCN(c4cc5c(C)nn(C6CCC(=O)NC6=O)c(=O)c5cc4F)CC3)CC1)c1nnc(C)n1-2` (stereo partly drawn) [ICT-0000953, 3-(6-(4-((1-(2-((S)-4-(4-chlorophenyl)-2,3,9-trimethyl-6H-thieno[3,2-f][1,2,4]triazolo[4,3-a][1,4]diazepine-6-il)acetyl)piperidine-4-il)methyl)piperazine-1-il)-7-fluoro-4-methyl-1-oxopthalazine-2(1H)-yl)piperidine-2,6-dione], the IC50 in the experiment on MDA-MB-231, in the experiment on SNU2972 and in the experiment with RPMI2650 (setting [4]) was less than 100 nM each time. Besides, the DC50 on BRD4-NUT (setting [3]), on BRD4 [1] and at BRD4 [2] (setting [5]) was less than 100 nM in each case.
`Cc1sc2c(c1C)C(c1ccc(Cl)cc1)=N[C@@H](CC(=O)Nc1ccc(N3CCN(c4ccc5c(=O)n(C6CCC(=O)NC6=O)nc(C)c5c4)CC3)cc1)c1nnc(C)n1-2` (stereo partly drawn) [ICT-0001410, 2-((S)-4-(4-chlorophenyl)-2,3,9-trimethyl-6H-thieno[3,2-f][1,2,4]triazolo[4,3-a][1,4]diazepine-6-yl)-N-(4-(4-(2-(2,6-dioxopiperidin-3-yl)-4-methyl-1-oxo-1,2-dihydroptalazine-6-yl)piperazine-1-yl)phenyl)acetamide]: the IC50 in the experiment on MDA-MB-231 and in the experiment on RPMI2650 (setting [4]) was less than 100 nM throughout. The DC50 at BRD4-NUT (setting [3]), at BRD4 [1] and on BRD4 [2] (setting [5]) was less than 100 nM throughout.
For `Cc1sc2c(c1C)C(c1ccc(Cl)cc1)=N[C@@H](CC(=O)Nc1ccc(CN3CCN(c4ccc5c(=O)n(C6CCC(=O)NC6=O)nc(C)c5c4)CC3)cc1)c1nnc(C)n1-2` (stereo partly drawn) [ICT-0001423, 2-[(9S)-7-(4-chlorophenyl)-4,5,13-trimethyl-3-thia-1,8,11,12-tetraazatricyclo[8.3.0.0^2,^6]trideca-2(6),4,7,10,12-pentaene-9-yl]-N-[4-({4-[2-(2,6-dioxopiperidin-3-yl)-4-methyl-1-oxo-1,2-dihydroptalazine-6-yl]piperazine-1-yl}methyl)phenyl]acetamide], the IC50 in the experiment on MDA-MB-231 and in the experiment on RPMI2650 (setting [4]) was less than 100 nM throughout. Moreover, the DC50 at BRD4-NUT (setting [3]), on BRD4 [1] and on BRD4 [2] (setting [5]) was less than 100 nM each time.
Take `CC[C@@H]1c2nnc(C)n2-c2cnc(Nc3ccc(C(=O)N4CCN(CCNc5cccc6cnn(C7CCC(=O)NC7=O)c(=O)c56)CC4)cc3OC)nc2N1CC1CCCCC1` (stereo partly drawn) [ICT-0001601, 3-(8-((2-(4-(4-(((R)-5-(cyclohexylmethyl)-4-ethyl-1-methyl-4,5-dihydro-[1,2,4]triazolo[4,3-f]pteridine-7-yl)amino)3-methoxybenzoyl)piperazine-1-il)ethyl)amino)1-oxopthalazine-2(1H)-yl)piperidine-2,6-dione]: the DC50 on BRD4-NUT (setting [6]) and at BRD4 [2] (setting [8]) was less than 100 nM in each case. Moreover, the IC50 – broadly, the concentration that gives 50% inhibition – in the experiment with RPMI2650 (setting [7]) is less than 100 nM.
In the case of `CC[C@@H]1c2nnc(C)n2-c2cnc(Nc3ccc(C(=O)N4CCN(CCNc5cccc6c(=O)n(C7CCC(=O)NC7=O)ncc56)CC4)cc3OC)nc2N1CC1CCCCC1` (stereo partly shown) [ICT-0001602], the DC50 – broadly, the midpoint of the concentration-degradation curve – on BRD4-NUT (setting [6]) was 100 to 1000 nM; on BRD4 [2] (setting [8]), less than 100 nM. Further, in the experiment with RPMI2650 (setting [7]), the IC50 was more than 1000 nM.
In the case of `CC[C@@H]1c2nnc(C)n2-c2cnc(Nc3ccc(C(=O)N4CCN(CCNc5ccc6c(=O)n(C7CCC(=O)NC7=O)ncc6c5)CC4)cc3OC)nc2N1CC1CCCCC1` (stereo partly drawn) [ICT-0001603, 3-(6-((2-(4-(4-(((R)-5-(cyclohexylmethyl)-4-ethyl-1-methyl-4,5-dihydro-[1,2,4]triazolo[4,3-f]pteridine-7-yl)amino)3-methoxybenzoyl)piperazine-1-yl)ethyl)amino)1-oxopthalazine-2(1H)-yl)piperidine-2,6-dione], the DC50 at BRD4-NUT (setting [6]) and at BRD4 [2] (setting [8]) was less than 100 nM each time. The IC50 with RPMI2650 (setting [7]) is more than 1000 nM.
